# Laboratory results: patent publication US10995091B2 (Proximagen, LLC, priority 2010, dated 2021)
# Counter-ions that a name gives are not always drawn.
# Target: T1, Human CXCR4 transfected HEK293 cells (Homo sapiens, UniProt P61073)
# T1 construct: expressed in transfected cells; host or cells: HEK293
# Test: CXCR4 functional calcium assay (calcium flux FLIPR, antagonism of SDF1 response)
# Type: cell-based
# Settings: CXCR4 functional activity, antagonism of SDF1 (EC50 concentration), read-out: CXCR4 fKi
# Method in brief: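 Dose-dependent antagonism of the SDF1 response was read by FLIPR as Fluo-4 calcium signal (2 μM dye) in CXCR4-expressing human HEK293 cells, in HBSS with probenecid, BSA and HEPES at pH 7.4 and 37° C. Test compound was given before an EC50-level SDF1 challenge. Curves were then fitted.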
# T1 sequence (P61073 whole entry): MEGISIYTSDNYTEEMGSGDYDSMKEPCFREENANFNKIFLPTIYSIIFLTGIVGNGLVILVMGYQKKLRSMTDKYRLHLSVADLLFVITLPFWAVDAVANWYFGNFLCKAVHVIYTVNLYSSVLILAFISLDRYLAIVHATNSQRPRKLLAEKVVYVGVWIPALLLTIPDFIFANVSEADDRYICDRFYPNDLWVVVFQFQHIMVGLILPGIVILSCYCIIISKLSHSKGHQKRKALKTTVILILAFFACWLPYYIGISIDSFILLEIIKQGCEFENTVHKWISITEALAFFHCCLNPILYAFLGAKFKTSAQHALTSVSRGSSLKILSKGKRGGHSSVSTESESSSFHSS
row,SMILES,Ki
1,"Cc1nc(-c2cccc(N3CCN(C4CCCN(C5CCCC5)CC4)CC3)n2)[nH]c1C1CC1 (stereo not shown) [Example 245, 1-Cyclopentyl-4-{4-[6-(5-cyclopropyl-4-methyl-1H-imidazol-2-yl)pyridin-2-yl]piperazin-1-yl}azepane]",20 to 100 nM
2,"O=C(NCc1cocn1)c1cccc(N2CCCN(C3CCN(Cc4ccccc4Cl)CC3)CC2)n1 [Example 58, 6-(4-{1-[(2-Chlorophenyl)methyl]piperidin-4-yl}-1,4-diazepan-1-yl)-N-(1,3-oxazol-4-ylmethyl)pyridine-2-carboxamide]",100 to 500 nM
3,"CCc1nc(-c2cccc(N3CCCN(C4CCN(C(C)C)CC4)CC3)n2)no1 [Example 155, 1-[6-(5-Ethyl-1,2,4-oxadiazol-3-yl)pyridine-2-yl]-4-[1-(propan-2-yl)piperidin-4-yl]-1,4-diazepane trihydrochloride]",100 to 500 nM
4,"CC(C)N1CCC(N2CCCN(c3cccc(C(=O)NCc4ncco4)n3)CC2)CC1 [Example 38, N-(1,3-Oxazol-2-ylmethyl)-6-{4-[1-(propan-2-yl)piperidin-4-yl]-1,4-diazepan-1-yl}pyridine-2-carboxamide]",20 to 100 nM
5,"c1cc(NCCNC2CCN(C3CCCC3)C2)nc(-c2ncc(C3CC3)[nH]2)c1 (stereo not shown) [Example 233, N-{2-[(1-Cyclopentylpyrrolidin-3-yl)amino]ethyl}-6-(5-cyclopropyl-1H-imidazol-2-yl)pyridin-2-amine]",500 to 1000 nM
6,"CCc1cnc(-c2cccc(N3CCCN(C4CCN(C(C)C)CC4)CC3)n2)[nH]1 [Example 108, 1-[6-(4-Ethyl-1H-imidazol-2-yl)pyridine-2-yl]-4-[1-(propan-2-yl)piperidin-4-yl]-1,4-diazepane]",< 20 nM
7,"CC(C)N1CCC(N2CCCN(c3cccc(C(=O)N[C@@H]4CCOC4)n3)CC2)CC1 [Example 19, N-[(3R)-Oxolan-3-yl]-6-{4-[1-(propan-2-yl)piperidin-4-yl]-1,4-diazepan-1-yl}pyridine-2-carboxamide]",100 to 500 nM
8,"Cc1nc(-c2cccc(NCCNC3CCCN(C4CCCC4)CC3)n2)[nH]c1C1CC1 (stereo not shown) [Example 246, 1-Cyclopentyl-N-(2-{[6-(5-cyclopropyl-4-methyl-1H-imidazol-2-yl)pyridin-2-yl]amino}ethyl)azepan-4-amine]",20 to 100 nM
9,"CC(C)N1CCC(N2CCCN(c3cccc(-c4noc(-c5ccccn5)n4)n3)CC2)CC1 [Example 165, 1-[1-(Propan-2-yl)piperidin-4-yl]-4-{6-[5-(pyridine-2-yl)-1,2,4-oxadiazol-3-yl]pyridine-2-yl}-1,4-diazepane tetrahydrochloride]",100 to 500 nM
10,"CC(C)N1CCC(N2CCCN(c3cccc(-c4cc5ccc(C#N)cc5[nH]4)n3)CC2)CC1 [Example 103, 2-(6-{4-[1-(Propan-2-yl)piperidin-4-yl]-1,4-diazepan-1-yl}pyridine-2-yl)-1H-indole-6-carbonitrile]",100 to 500 nM
11,"CC(C)N1CCC(N2CCCN(c3cccc(-c4ncc(C(F)(F)F)[nH]4)n3)CC2)CC1 [Example 112, 1-[1-(Propan-2-yl)piperidin-4-yl]-4-{6-[4-(trifluoromethyl)-1H-imidazol-2-yl]pyridine-2-yl}-1,4-diazepane]",500 to 1000 nM
12,"CC(C)N1CCC(N2CCN(c3cccc(C(=O)NCC4CC4)n3)CC(O)C2)CC1 (stereo not shown) [Example 183, N-(Cyclopropylmethyl)-6-{6-hydroxy-4-[1-(propan-2-yl)piperidin-4-yl]-1,4-diazepan-1-yl}pyridine-2-carboxamide]",100 to 500 nM
13,"Cc1nc(-c2cccc(N3CC[C@@H](NC[C@@H]4CCN(C5CCCC5)C4)C3)n2)[nH]c1C1CC1 [Example 224, (3R)—N-{[(3S)-1-Cyclopentylpyrrolidin-3-yl]methyl}-1-[6-(4-cyclopropyl-5-methyl-1H-imidazol-2-yl)pyridin-2-yl]pyrrolidin-3-amine]",< 20 nM
14,"CCCc1[nH]c(-c2cccc(N3CCCN(C4CCN(C(C)C)CC4)CC3)n2)nc1C [Example 123, 1-[6-(5-Methyl-4-propyl-1H-imidazol-2-yl)pyridine-2-yl]-4-[1-(propan-2-yl)piperidin-4-yl]-1,4-diazepane]",< 20 nM
15,"[2H]C1([2H])CCN(c2cccc(C(=O)NCC3CC3)n2)CCN1C1CCN(C(C)C)CC1 [Example 192, N-(Cyclopropylmethyl)-6-{5,5-dihydrogenio-4-[1-(propan-2-yl)piperidin-4-yl]-1,4-diazepan-1-yl}pyridine-2-carboxamide]",20 to 100 nM
16,"[2H]C1([2H])CCN(c2cccc(C(=O)Nc3ccncc3)n2)CCN1C1CCN(Cc2ccccc2Cl)CC1 [Example 204, 6-(4-{1-[(2-Chlorophenyl)methyl]piperidin-4-yl}-5,5-dihydrogenio-1,4-diazepan-1-yl)-N-(pyridin-4-yl)pyridine-2-carboxamide]",< 20 nM
17,"CC(C)NCC(O)CN1CCCN(c2cccc(C(=O)NCc3cccnc3)n2)CC1 (stereo not shown) [Example 254, 6-{4-[2-Hydroxy-3-(propan-2-ylamino)propyl]-1,4-diazepan-1-yl}-N-(pyridin-3-ylmethyl)pyridine-2-carboxamide]",100 to 500 nM

row,SMILES,Ki
1,"CC(C)N1CCC(N2CCCN(c3cccc(-c4ncc(-c5ccccc5)[nH]4)n3)CC2)CC1 [Example 114, 1-[6-(4-Phenyl-1H-imidazol-2-yl)pyridine-2-yl]-4-[1-(propan-2-yl)piperidin-4-yl]-1,4-diazepane]",100 to 500 nM
2,"O=C(Nc1ccncc1)c1cccc(N2CCCN(C3CCN(Cc4ccccc4Cl)CC3)CC2)n1 [Example 54, 6-(4-{1-[(2-Chlorophenyl)methyl]piperidin-4-yl}-1,4-diazepan-1-yl)-N-(pyridine-4-yl)pyridine-2-carboxamide]",< 20 nM
3,"CC(C)N1CCC(N2CCCN(c3cccc(-c4c[nH]c5ncccc45)n3)CC2)CC1 [Example 101, 1-[1-(Propan-2-yl)piperidin-4-yl]-4-(6-{1H-pyrrolo[2,3-b]pyridine-3-yl}pyridine-2-yl)-1,4-diazepane]",100 to 500 nM
4,"CC(C)N1CCC(N2CCCN(c3cccc(C(=O)NCc4ccccn4)n3)CC2)CC1 [Example 33, 6-{4-[1-(Propan-2-yl)piperidin-4-yl]-1,4-diazepan-1-yl}-N-(pyridin-2-ylmethyl)pyridine-2-carboxamide]",20 to 100 nM
5,"Cc1cc(NC(=O)c2cccc(N3CCCN(C4CCN(C(C)C)CC4)CC3)n2)cc(C)n1 [Example 87, N-(2,6-Dimethylpyridin-4-yl)-6-{4-[1-(propan-2-yl)piperidin-4-yl]-1,4-diazepan-1-yl}pyridine-2-carboxamide]",< 20 nM
6,"O=C(NCC1CC1)c1cccc(N2CCCN(C3CCN([C@H]4CCc5ccccc54)CC3)CC2)n1 [Example 77, N-(Cyclopropylmethyl)-6-(4-{1-[(1S)-2,3-dihydro-1H-inden-1-yl]piperidin-4-yl}-1,4-diazepan-1-yl)pyridine-2-carboxamide]",20 to 100 nM
7,"CC(C)N1CCC(N2CCCN(c3cccc(-c4nc5ccccc5o4)n3)CC2)CC1 [Example 152, 2-(6-{4-[1-(Propan-2-yl)piperidin-4-yl]-1,4-diazepan-1-yl}pyridine-2-yl)-1,3-benzoxazole]",100 to 500 nM
8,"Cc1nc(-c2cccc(NCCNC3CCCN(C4CCCC4)C3)n2)[nH]c1C1CC1 (stereo not shown) [Example 231, N-{2-[(1-Cyclopentylpiperidin-3-yl)amino]ethyl}-6-(5-cyclopropyl-4-methyl-1H-imidazol-2-yl)pyridin-2-amine]",100 to 500 nM
9,"Cc1ccc(N2CCCN(C3CCN(C(C)C)CC3)CC2)nc1C(=O)NCC1CC1 [Example 125, N-(Cyclopropylmethyl)-3-methyl-6-{4-[1-(propan-2-yl)piperidin-4-yl]-1,4-diazepan-1-yl}pyridine-2-carboxamide]",100 to 500 nM
10,"CC(C)N1CCC(N2CCCN(c3cccc(C(=O)Nc4cccnc4)n3)CC2)CC1 [Example 29, 6-{4-[1-(Propan-2-yl)piperidin-4-yl]-1,4-diazepan-1-yl}-N-(pyridin-3-yl)pyridine-2-carboxamide]",20 to 100 nM
11,"CCC(C)N1CCC(N2CCCN(c3cccc(C(=O)NCC4CC4)n3)CC2)CC1 (stereo not shown) [Example 65, 6-{4-[1-(Butan-2-yl)piperidin-4-yl]-1,4-diazepan-1-yl}-N-(cyclopropylmethyl)pyridine-2-carboxamide]",< 20 nM
12,"CC(C)N1CCC(N2CCCN(c3cccc(-c4nc5ccccc5n4C)n3)CC2)CC1 [Example 140, 1-Methyl-2-(6-{4-[1-(propan-2-yl)piperidin-4-yl]-1,4-diazepan-1-yl}pyridin-2-yl)-1H-1,3-benzodiazole]",500 to 1000 nM
13,"CC(C)N1CCC(NC2CCN(c3cccc(C(=O)Nc4ccncc4)n3)CC2)CC1 [Example 249, 6-(4-{[1-(Propan-2-yl)piperidin-4-yl]amino}piperidin-1-yl)-N-(pyridin-4-yl)pyridine-2-carboxamide]",100 to 500 nM
14,"CC(C)N1CCC(N2CCCN(c3cccc(-c4noc(C(C)(C)C)n4)n3)CC2)CC1 [Example 159, 1-[6-(5-tert-Butyl-1,2,4-oxadiazol-3-yl)pyridine-2-yl]-4-[1-(propan-2-yl)piperidin-4-yl]-1,4-diazepane]",500 to 1000 nM
15,"CC(C)N1CCC(N2CCCN(c3cccc(C(=O)NCCC#N)n3)CC2)CC1 [Example 13, N-(2-Cyanoethyl)-6-{4-[1-(propan-2-yl)piperidin-4-yl]-1,4-diazepan-1-yl}pyridine-2-carboxamide]",100 to 500 nM
16,"CC(C)(C)C1CCC(N2CCCN(c3cccc(C(=O)NCc4cccnc4)n3)CC2)CC1 (stereo not shown) [Example 256, 6-[4-(4-tert-Butylcyclohexyl)-1,4-diazepan-1-yl]-N-(pyridin-3-ylmethyl)pyridine-2-carboxamide]",20 to 100 nM
17,"CC(C)N1CCC(N2CC3CCC2CN(c2cccc(C(=O)NCC4CC4)n2)C3)CC1 (stereo not shown) [Example 199, N-(Cyclopropylmethyl)-6-{6-[1-(propan-2-yl)piperidin-4-yl]-3,6-diazabicyclo[3.2.2]nonan-3-yl}pyridine-2-carboxamide trihydrochloride]",500 to 1000 nM
